Reference: the supplement of paper PMC10307832

How the values were obtained:
Assay in all cases: relative viability (nuclei count vs DMSO), 5 days (fraction); higher = more cells survive
Doxorubicin + Crizotinib = compound: COc1cccc2c1C(=O)c1c(O)c3c(c(O)c1C2=O)C[C@@](O)(C(=O)CO)C[C@@H]3O[C@H]1C[C@H](N)[C@H](O)[C@H](C)O1 [Doxorubicin] + C[C@@H](Oc1cc(-c2cnn(C3CCNCC3)c2)cnc1N)c1c(Cl)ccc(F)c1Cl [Crizotinib] (partner 1 µM)
Outline: (§1)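 After 5 days of treatment, lung cancer cells in 1536-well plates were fixed and stained in a single step (final 0.05% Triton X-100, 1% formaldehyde, 1 ug/ml Hoechst) and their nuclei counted on 4× images. Treatment had been applied by pin tool the day after seeding as one drug alone or as a fixed anchor-drug dose with five library-drug doses (not always all listed) in √10 steps. Relative viability is the nuclei count of treated wells divided by that of vehicle wells, and values are medians of duplicate plates.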

BAY61-3606 + Palbociclib = compound: COC1=C(C=C(C=C1)C2=CC3=NC=CN3C(=N2)NC4=C(C=CC=N4)C(=O)N)OC [BAY61-3606] + CC(=O)c1c(C)c2cnc(Nc3ccc(N4CCNCC4)cn3)nc2n(C2CCCC2)c1=O [Palbociclib] (partner 0.5 µM)
Outline: as §1

BAY61-3606 + AZD7762 = compound: COC1=C(C=C(C=C1)C2=CC3=NC=CN3C(=N2)NC4=C(C=CC=N4)C(=O)N)OC [BAY61-3606] + NC(=O)Nc1cc(-c2cccc(F)c2)sc1C(=O)N[C@H]1CCCNC1 [AZD7762] (partner 0.2 µM)
Outline: as §1

Doxorubicin + Decitabine = compound: COc1cccc2c1C(=O)c1c(O)c3c(c(O)c1C2=O)C[C@@](O)(C(=O)CO)C[C@@H]3O[C@H]1C[C@H](N)[C@H](O)[C@H](C)O1 [Doxorubicin] + Nc1ncn([C@H]2C[C@H](O)[C@@H](CO)O2)c(=O)n1 [Decitabine] (partner 2 µM)
Outline: as §1

Cell Line: NCI-H358
- relative viability (Doxorubicin + Crizotinib; first compound 0.001 µM): 0.728
- relative viability (Doxorubicin + Crizotinib; first compound 0.003162 µM): 0.543
- relative viability (Doxorubicin + Crizotinib; first compound 0.01 µM): 0.441
- relative viability (Doxorubicin + Crizotinib; first compound 0.03162 µM): 0.202
- relative viability (Doxorubicin + Crizotinib; first compound 0.1 µM): 0.0991
- relative viability (BAY61-3606 + Palbociclib; first compound 0.02 µM): 0.123
- relative viability (BAY61-3606 + Palbociclib; first compound 0.06325 µM): 0.143
- relative viability (BAY61-3606 + Palbociclib; first compound 0.2 µM): 0.136
- relative viability (BAY61-3606 + Palbociclib; first compound 0.6325 µM): 0.125
- relative viability (BAY61-3606 + Palbociclib; first compound 2 µM): 0.101
- relative viability (BAY61-3606 + AZD7762; first compound 0.02 µM): 0.489
- relative viability (BAY61-3606 + AZD7762; first compound 0.06325 µM): 0.502
- relative viability (BAY61-3606 + AZD7762; first compound 0.2 µM): 0.469
- relative viability (BAY61-3606 + AZD7762; first compound 0.6325 µM): 0.468
- relative viability (BAY61-3606 + AZD7762; first compound 2 µM): 0.261
- relative viability (Doxorubicin + Decitabine; first compound 0.001 µM): 0.206
- relative viability (Doxorubicin + Decitabine; first compound 0.003162 µM): 0.17
- relative viability (Doxorubicin + Decitabine; first compound 0.01 µM): 0.154
- relative viability (Doxorubicin + Decitabine; first compound 0.03162 µM): 0.12
- relative viability (Doxorubicin + Decitabine; first compound 0.1 µM): 0.0966

Cell Line: NCI-H1355
- relative viability (Doxorubicin + Crizotinib; first compound 0.001 µM): 1.05
- relative viability (Doxorubicin + Crizotinib; first compound 0.003162 µM): 1.16
- relative viability (Doxorubicin + Crizotinib; first compound 0.01 µM): 1.01
- relative viability (Doxorubicin + Crizotinib; first compound 0.03162 µM): 0.964
- relative viability (Doxorubicin + Crizotinib; first compound 0.1 µM): 1.05
- relative viability (BAY61-3606 + Palbociclib; first compound 0.02 µM): 0.444
- relative viability (BAY61-3606 + Palbociclib; first compound 0.06325 µM): 0.404
- relative viability (BAY61-3606 + Palbociclib; first compound 0.2 µM): 0.398
- relative viability (BAY61-3606 + Palbociclib; first compound 0.6325 µM): 0.454
- relative viability (BAY61-3606 + Palbociclib; first compound 2 µM): 0.335
- relative viability (BAY61-3606 + AZD7762; first compound 0.02 µM): 0.833
- relative viability (BAY61-3606 + AZD7762; first compound 0.06325 µM): 0.531
- relative viability (BAY61-3606 + AZD7762; first compound 0.2 µM): 0.679
- relative viability (BAY61-3606 + AZD7762; first compound 0.6325 µM): 0.749
- relative viability (BAY61-3606 + AZD7762; first compound 2 µM): 0.529
- relative viability (Doxorubicin + Decitabine; first compound 0.001 µM): 0.379
- relative viability (Doxorubicin + Decitabine; first compound 0.003162 µM): 0.424
- relative viability (Doxorubicin + Decitabine; first compound 0.01 µM): 0.383
- relative viability (Doxorubicin + Decitabine; first compound 0.03162 µM): 0.382
- relative viability (Doxorubicin + Decitabine; first compound 0.1 µM): 0.349

Cell Line: NCI-H3122
- relative viability (Doxorubicin + Crizotinib; first compound 0.001 µM): 0.247
- relative viability (Doxorubicin + Crizotinib; first compound 0.003162 µM): 0.302
- relative viability (Doxorubicin + Crizotinib; first compound 0.01 µM): 0.295
- relative viability (Doxorubicin + Crizotinib; first compound 0.03162 µM): 0.257
- relative viability (Doxorubicin + Crizotinib; first compound 0.1 µM): 0.282
- relative viability (BAY61-3606 + Palbociclib; first compound 0.02 µM): 0.159
- relative viability (BAY61-3606 + Palbociclib; first compound 0.06325 µM): 0.185
- relative viability (BAY61-3606 + Palbociclib; first compound 0.2 µM): 0.226
- relative viability (BAY61-3606 + Palbociclib; first compound 0.6325 µM): 0.231
- relative viability (BAY61-3606 + Palbociclib; first compound 2 µM): 0.189
- relative viability (BAY61-3606 + AZD7762; first compound 0.02 µM): 0.989
- relative viability (BAY61-3606 + AZD7762; first compound 0.06325 µM): 0.968
- relative viability (BAY61-3606 + AZD7762; first compound 0.2 µM): 0.962
- relative viability (BAY61-3606 + AZD7762; first compound 0.6325 µM): 1.02
- relative viability (BAY61-3606 + AZD7762; first compound 2 µM): 0.945
- relative viability (Doxorubicin + Decitabine; first compound 0.001 µM): 0.391
- relative viability (Doxorubicin + Decitabine; first compound 0.003162 µM): 0.514
- relative viability (Doxorubicin + Decitabine; first compound 0.01 µM): 0.389
- relative viability (Doxorubicin + Decitabine; first compound 0.03162 µM): 0.384
- relative viability (Doxorubicin + Decitabine; first compound 0.1 µM): 0.437

Cell Line: HARA
- relative viability (Doxorubicin + Crizotinib; first compound 0.001 µM): 1.04
- relative viability (Doxorubicin + Crizotinib; first compound 0.003162 µM): 1.04
- relative viability (Doxorubicin + Crizotinib; first compound 0.01 µM): 1.03
- relative viability (Doxorubicin + Crizotinib; first compound 0.03162 µM): 1.01
- relative viability (Doxorubicin + Crizotinib; first compound 0.1 µM): 0.959
- relative viability (BAY61-3606 + Palbociclib; first compound 0.02 µM): 0.262
- relative viability (BAY61-3606 + Palbociclib; first compound 0.06325 µM): 0.23
- relative viability (BAY61-3606 + Palbociclib; first compound 0.2 µM): 0.268
- relative viability (BAY61-3606 + Palbociclib; first compound 0.6325 µM): 0.243
- relative viability (BAY61-3606 + Palbociclib; first compound 2 µM): 0.306
- relative viability (BAY61-3606 + AZD7762; first compound 0.02 µM): 0.286
- relative viability (BAY61-3606 + AZD7762; first compound 0.06325 µM): 0.291
- relative viability (BAY61-3606 + AZD7762; first compound 0.2 µM): 0.452
- relative viability (BAY61-3606 + AZD7762; first compound 0.6325 µM): 0.303
- relative viability (BAY61-3606 + AZD7762; first compound 2 µM): 0.3
- relative viability (Doxorubicin + Decitabine; first compound 0.001 µM): 0.796
- relative viability (Doxorubicin + Decitabine; first compound 0.003162 µM): 0.425
- relative viability (Doxorubicin + Decitabine; first compound 0.01 µM): 0.519
- relative viability (Doxorubicin + Decitabine; first compound 0.03162 µM): 0.507
- relative viability (Doxorubicin + Decitabine; first compound 0.1 µM): 0.407

Cell Line: NCI-H2126
- relative viability (Doxorubicin + Crizotinib; first compound 0.001 µM): 1.04
- relative viability (Doxorubicin + Crizotinib; first compound 0.003162 µM): 1.08
- relative viability (Doxorubicin + Crizotinib; first compound 0.01 µM): 0.961
- relative viability (Doxorubicin + Crizotinib; first compound 0.03162 µM): 1.08
- relative viability (Doxorubicin + Crizotinib; first compound 0.1 µM): 1.05
- relative viability (BAY61-3606 + Palbociclib; first compound 0.02 µM): 0.356
- relative viability (BAY61-3606 + Palbociclib; first compound 0.06325 µM): 0.353
- relative viability (BAY61-3606 + Palbociclib; first compound 0.2 µM): 0.369
- relative viability (BAY61-3606 + Palbociclib; first compound 0.6325 µM): 0.352
- relative viability (BAY61-3606 + Palbociclib; first compound 2 µM): 0.31
- relative viability (BAY61-3606 + AZD7762; first compound 0.02 µM): 1.06
- relative viability (BAY61-3606 + AZD7762; first compound 0.06325 µM): 1.09
- relative viability (BAY61-3606 + AZD7762; first compound 0.2 µM): 0.999
- relative viability (BAY61-3606 + AZD7762; first compound 0.6325 µM): 1.02
- relative viability (BAY61-3606 + AZD7762; first compound 2 µM): 0.954
- relative viability (Doxorubicin + Decitabine; first compound 0.001 µM): 0.531
- relative viability (Doxorubicin + Decitabine; first compound 0.003162 µM): 0.608
- relative viability (Doxorubicin + Decitabine; first compound 0.01 µM): 0.562
- relative viability (Doxorubicin + Decitabine; first compound 0.03162 µM): 0.57
- relative viability (Doxorubicin + Decitabine; first compound 0.1 µM): 0.587

Cell Line: NCI-H1915
- relative viability (Doxorubicin + Crizotinib; first compound 0.001 µM): 0.917
- relative viability (Doxorubicin + Crizotinib; first compound 0.003162 µM): 0.915
- relative viability (Doxorubicin + Crizotinib; first compound 0.01 µM): 0.871
- relative viability (Doxorubicin + Crizotinib; first compound 0.03162 µM): 0.889
- relative viability (Doxorubicin + Crizotinib; first compound 0.1 µM): 0.952
- relative viability (BAY61-3606 + Palbociclib; first compound 0.02 µM): 0.54
- relative viability (BAY61-3606 + Palbociclib; first compound 0.06325 µM): 0.565
- relative viability (BAY61-3606 + Palbociclib; first compound 0.2 µM): 0.537
- relative viability (BAY61-3606 + Palbociclib; first compound 0.6325 µM): 0.551
- relative viability (BAY61-3606 + Palbociclib; first compound 2 µM): 0.375
- relative viability (BAY61-3606 + AZD7762; first compound 0.02 µM): 0.658
- relative viability (BAY61-3606 + AZD7762; first compound 0.06325 µM): 0.708
- relative viability (BAY61-3606 + AZD7762; first compound 0.2 µM): 0.641
- relative viability (BAY61-3606 + AZD7762; first compound 0.6325 µM): 0.659
- relative viability (BAY61-3606 + AZD7762; first compound 2 µM): 0.66
- relative viability (Doxorubicin + Decitabine; first compound 0.001 µM): 0.265
- relative viability (Doxorubicin + Decitabine; first compound 0.003162 µM): 0.263
- relative viability (Doxorubicin + Decitabine; first compound 0.01 µM): 0.283
- relative viability (Doxorubicin + Decitabine; first compound 0.03162 µM): 0.259
- relative viability (Doxorubicin + Decitabine; first compound 0.1 µM): 0.271

Cell Line: ChaGo-K-1
- relative viability (Doxorubicin + Crizotinib; first compound 0.001 µM): 1.15
- relative viability (Doxorubicin + Crizotinib; first compound 0.003162 µM): 1.01
- relative viability (Doxorubicin + Crizotinib; first compound 0.01 µM): 0.98
- relative viability (Doxorubicin + Crizotinib; first compound 0.03162 µM): 0.45
- relative viability (Doxorubicin + Crizotinib; first compound 0.1 µM): 0.378
- relative viability (BAY61-3606 + Palbociclib; first compound 0.02 µM): 0.934
- relative viability (BAY61-3606 + Palbociclib; first compound 0.06325 µM): 0.846
- relative viability (BAY61-3606 + Palbociclib; first compound 0.2 µM): 0.89
- relative viability (BAY61-3606 + Palbociclib; first compound 0.6325 µM): 0.916
- relative viability (BAY61-3606 + Palbociclib; first compound 2 µM): 0.865
- relative viability (BAY61-3606 + AZD7762; first compound 0.02 µM): 0.943
- relative viability (BAY61-3606 + AZD7762; first compound 0.06325 µM): 0.904
- relative viability (BAY61-3606 + AZD7762; first compound 0.2 µM): 0.9
- relative viability (BAY61-3606 + AZD7762; first compound 0.6325 µM): 0.847
- relative viability (BAY61-3606 + AZD7762; first compound 2 µM): 0.841
- relative viability (Doxorubicin + Decitabine; first compound 0.001 µM): 0.524
- relative viability (Doxorubicin + Decitabine; first compound 0.003162 µM): 0.557
- relative viability (Doxorubicin + Decitabine; first compound 0.01 µM): 0.482
- relative viability (Doxorubicin + Decitabine; first compound 0.03162 µM): 0.473
- relative viability (Doxorubicin + Decitabine; first compound 0.1 µM): 0.527
